Read-outs that look alike come from different tables or passages of the source.
Legend:
[1] = Plasma protein binding assay, mouse; type: in vitro ADME; conditions: plasma proteins, 4 h at 37° C., equilibrium dialysis, read-out: % bound [mouse] (converted)
From the text: A drug's efficiency may be affected by the degree to which it binds to the proteins within blood plasma. A drug in blood exists in two forms: bound and unbound. Depending on a specific drug's affinity for plasma protein, a proportion of the drug may become bound to plasma proteins, with the remainder being unbound. […] It is also the fraction that may be metabolized and/or excreted. Protein binding can influence the drug's biological half-life in the body. The bound portion may act as a reservoir or depot from which the drug is slowly released as the unbound form. In order to determine the binding characteristics of the compounds of the present invention as listed in the following Table to human or mouse plasma protein, respectively, a plasma protein binding assay was carried out. All compounds have a plasma protein binding that is appropriate for diagnostic, therapeutic and theranostic use of these compounds according to the present invention.
The binding of test substances to human and murine plasma proteins was tested by Cerep (Celle l'Evescault, France; Catalog reference 2194 [human] and 2223 [mouse]) according to Banker et al., J. Pharm. Sci., 2003, 92, 967-974. Test compounds were incubated with human or murine plasma proteins for 4 h at 37° C. Subsequently, the fraction of compound bound to plasma proteins was determined by equilibrium dialysis and HPLC-MS/MS detection. […]

beta 2 (h) = beta 2 (h) (Homo sapiens (Human), UniProt P07550); assay: ExpresSProfile: beta2 adrenergic receptor, agonist radioligand; type: binding; conditions: Test Concentration 1.0E−05 M
Sequence of beta 2 (h) (P07550 whole entry): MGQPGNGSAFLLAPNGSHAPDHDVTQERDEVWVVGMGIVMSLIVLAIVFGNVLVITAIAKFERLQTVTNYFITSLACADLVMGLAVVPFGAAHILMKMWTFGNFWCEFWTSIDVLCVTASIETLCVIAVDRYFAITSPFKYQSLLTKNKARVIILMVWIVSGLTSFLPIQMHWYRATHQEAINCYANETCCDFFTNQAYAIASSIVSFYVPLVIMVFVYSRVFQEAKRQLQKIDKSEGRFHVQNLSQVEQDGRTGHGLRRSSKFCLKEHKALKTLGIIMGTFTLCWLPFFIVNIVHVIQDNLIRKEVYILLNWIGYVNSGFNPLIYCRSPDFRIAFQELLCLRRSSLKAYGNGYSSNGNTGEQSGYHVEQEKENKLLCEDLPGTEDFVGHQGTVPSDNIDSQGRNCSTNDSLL

AT1 (h) = AT1 (h) (Homo sapiens (Human), UniProt P30556); assay: ExpresSProfile: angiotensin receptor 1, antagonist radioligand; type: binding; conditions: Test Concentration 1.0E−05 M
Sequence of AT1 (h) (P30556 whole entry): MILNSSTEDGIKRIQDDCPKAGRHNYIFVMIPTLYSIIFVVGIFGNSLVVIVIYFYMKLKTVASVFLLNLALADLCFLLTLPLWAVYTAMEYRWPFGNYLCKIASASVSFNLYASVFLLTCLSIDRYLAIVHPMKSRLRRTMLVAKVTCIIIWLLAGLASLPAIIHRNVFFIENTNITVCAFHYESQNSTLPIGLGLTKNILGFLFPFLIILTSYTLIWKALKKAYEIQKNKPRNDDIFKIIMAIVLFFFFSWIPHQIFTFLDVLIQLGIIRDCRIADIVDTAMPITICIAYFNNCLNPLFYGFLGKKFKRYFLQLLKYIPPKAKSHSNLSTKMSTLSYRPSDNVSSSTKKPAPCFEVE

CCK1 (CCKA) (h) = CCK1 (CCKA) (h) (Homo sapiens (Human), UniProt P32238); assay: ExpresSProfile: cholecystokinin receptor 1, agonist radioligand; type: binding; conditions: Test Concentration 1.0E−05 M
Sequence of CCK1 (CCKA) (h) (P32238 whole entry): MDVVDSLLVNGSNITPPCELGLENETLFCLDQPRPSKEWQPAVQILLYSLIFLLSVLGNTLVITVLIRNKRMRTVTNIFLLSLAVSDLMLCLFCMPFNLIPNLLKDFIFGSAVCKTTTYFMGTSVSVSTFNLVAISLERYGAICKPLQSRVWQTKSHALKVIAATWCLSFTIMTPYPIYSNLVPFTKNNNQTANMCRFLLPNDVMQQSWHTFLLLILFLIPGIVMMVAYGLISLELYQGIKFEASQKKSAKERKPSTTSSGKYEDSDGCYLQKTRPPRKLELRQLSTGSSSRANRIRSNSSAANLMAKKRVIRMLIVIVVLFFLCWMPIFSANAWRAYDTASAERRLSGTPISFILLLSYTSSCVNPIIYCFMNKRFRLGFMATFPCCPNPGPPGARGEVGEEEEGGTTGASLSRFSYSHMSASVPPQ

D2S (h) = D2S (h) (Homo sapiens (Human), UniProt P14416); assay: ExpresSProfile: dopamine receptor 2S, antagonist radioligand; type: binding; conditions: Test Concentration 1.0E−05 M
CXCR2 (IL-8B) (h) = CXCR2 (IL-8B) (h) (Homo sapiens (Human), UniProt P25025); assay: ExpresSProfile: C-X-C chemokine receptor type 2, agonist radioligand; type: binding; conditions: Test Concentration 1.0E−05 M
M2 (h) = M2 (h) (Homo sapiens (Human), UniProt P08172); assay: ExpresSProfile: muscarinic receptor 2, antagonist radioligand; type: binding; conditions: Test Concentration 1.0E−05 M
Sequence of M2 (h) (P08172 whole entry): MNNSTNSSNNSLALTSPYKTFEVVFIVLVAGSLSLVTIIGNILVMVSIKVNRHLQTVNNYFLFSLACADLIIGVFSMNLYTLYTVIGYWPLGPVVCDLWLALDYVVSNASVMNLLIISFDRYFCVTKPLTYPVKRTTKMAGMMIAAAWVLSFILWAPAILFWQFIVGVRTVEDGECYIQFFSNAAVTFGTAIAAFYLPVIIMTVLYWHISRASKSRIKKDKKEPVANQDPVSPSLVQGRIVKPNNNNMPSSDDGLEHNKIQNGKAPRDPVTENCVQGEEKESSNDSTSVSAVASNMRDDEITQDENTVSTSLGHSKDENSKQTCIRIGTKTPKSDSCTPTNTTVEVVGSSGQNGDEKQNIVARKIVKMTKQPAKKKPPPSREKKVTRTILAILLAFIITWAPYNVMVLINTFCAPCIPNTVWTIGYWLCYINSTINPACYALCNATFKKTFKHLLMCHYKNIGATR

NK3 (h) = NK3 (h) (Homo sapiens (Human), UniProt P29371); assay: ExpresSProfile: neurokinin receptor 3, antagonist radioligand; type: binding; conditions: Test Concentration 1.0E−05 M
Sequence of NK3 (h) (P29371 whole entry): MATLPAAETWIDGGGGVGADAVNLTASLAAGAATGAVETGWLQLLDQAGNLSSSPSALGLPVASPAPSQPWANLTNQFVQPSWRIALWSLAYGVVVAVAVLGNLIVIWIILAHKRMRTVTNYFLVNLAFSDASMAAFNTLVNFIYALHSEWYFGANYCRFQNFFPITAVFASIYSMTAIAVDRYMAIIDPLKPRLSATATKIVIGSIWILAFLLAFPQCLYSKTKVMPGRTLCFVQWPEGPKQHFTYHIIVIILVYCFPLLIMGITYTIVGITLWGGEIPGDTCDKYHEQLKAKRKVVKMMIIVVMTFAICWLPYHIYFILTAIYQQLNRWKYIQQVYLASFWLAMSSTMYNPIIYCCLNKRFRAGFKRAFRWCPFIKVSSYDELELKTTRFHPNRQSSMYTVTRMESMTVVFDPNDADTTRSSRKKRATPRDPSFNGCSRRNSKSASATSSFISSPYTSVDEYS

Y2 (h) = Y2 (h) (Homo sapiens (Human), UniProt P49146); assay: ExpresSProfile: neuropeptide Y receptor 2, agonist radioligand; type: binding; conditions: Test Concentration 1.0E−05 M
Sequence of Y2 (h) (P49146 whole entry): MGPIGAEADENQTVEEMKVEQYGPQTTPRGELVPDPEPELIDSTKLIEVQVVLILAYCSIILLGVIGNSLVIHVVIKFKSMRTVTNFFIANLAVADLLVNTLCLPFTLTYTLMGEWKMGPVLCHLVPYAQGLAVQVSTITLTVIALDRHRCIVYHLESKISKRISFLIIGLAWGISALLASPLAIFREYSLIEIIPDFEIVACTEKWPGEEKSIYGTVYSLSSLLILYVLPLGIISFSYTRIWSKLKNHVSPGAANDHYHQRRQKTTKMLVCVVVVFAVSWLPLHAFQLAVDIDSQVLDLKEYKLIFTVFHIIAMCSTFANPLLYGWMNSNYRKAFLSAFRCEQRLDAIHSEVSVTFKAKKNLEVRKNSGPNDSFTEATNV

NTS1 (NT1) (h) = NTS1 (NT1) (h) (Homo sapiens (Human), UniProt P30989); assay: ExpresSProfile: neurotensin receptor 1, agonist radioligand; type: binding; conditions: Test Concentration 1.0E−05 M
Sequence of NTS1 (NT1) (h) (P30989 whole entry): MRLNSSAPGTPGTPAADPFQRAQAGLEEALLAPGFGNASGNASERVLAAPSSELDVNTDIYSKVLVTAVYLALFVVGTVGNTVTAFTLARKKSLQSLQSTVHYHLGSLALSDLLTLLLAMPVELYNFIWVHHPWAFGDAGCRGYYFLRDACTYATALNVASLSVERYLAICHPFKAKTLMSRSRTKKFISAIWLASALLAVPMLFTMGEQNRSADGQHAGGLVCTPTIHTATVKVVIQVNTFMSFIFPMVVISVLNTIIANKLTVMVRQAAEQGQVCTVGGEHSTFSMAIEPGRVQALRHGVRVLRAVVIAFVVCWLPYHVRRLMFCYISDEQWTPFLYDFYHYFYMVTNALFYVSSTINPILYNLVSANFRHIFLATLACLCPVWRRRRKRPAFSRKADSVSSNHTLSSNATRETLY

delta 2 (DOP) (h) = delta 2 (DOP) (h) (Homo sapiens (Human), UniProt P41143); assay: ExpresSProfile: delta2 opioid receptor, agonist radioligand; type: binding; conditions: Test Concentration 1.0E−05 M
EP4 (h) = EP4 (h) (Homo sapiens (Human), UniProt P35408); assay: ExpresSProfile: prostaglandin e receptor type 4, agonist radioligand; type: binding; conditions: Test Concentration 1.0E−05 M
Sequence of EP4 (h) (P35408 whole entry): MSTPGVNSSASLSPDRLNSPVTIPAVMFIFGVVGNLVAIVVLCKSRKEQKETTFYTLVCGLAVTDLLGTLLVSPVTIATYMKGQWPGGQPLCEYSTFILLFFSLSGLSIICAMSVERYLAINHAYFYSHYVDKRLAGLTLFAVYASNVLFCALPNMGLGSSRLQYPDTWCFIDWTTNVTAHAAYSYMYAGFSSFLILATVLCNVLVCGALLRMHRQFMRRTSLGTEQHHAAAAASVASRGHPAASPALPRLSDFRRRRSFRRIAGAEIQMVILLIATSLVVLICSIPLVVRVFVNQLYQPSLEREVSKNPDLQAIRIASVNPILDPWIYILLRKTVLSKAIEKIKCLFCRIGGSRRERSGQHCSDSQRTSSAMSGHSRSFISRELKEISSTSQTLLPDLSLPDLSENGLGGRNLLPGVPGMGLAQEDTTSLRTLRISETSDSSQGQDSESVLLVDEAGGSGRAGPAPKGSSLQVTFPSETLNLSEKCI

5-HT1B = 5-HT1B (Rattus norvegicus, UniProt P28564); assay: ExpresSProfile: 5-hydroxytryptamine receptor 1B, antagonist radioligand; type: binding; conditions: Test Concentration 1.0E−05 M
5-HT2B (h) = 5-HT2B (h) (Homo sapiens (Human), UniProt P41595); assay: ExpresSProfile: 5-hydroxytryptamine receptor 2B, agonist radioligand; type: binding; conditions: Test Concentration 1.0E−05 M
5-HT3 (h) = 5-HT3 (h) (Homo sapiens (Human), UniProt P46098); assay: ExpresSProfile: 5-hydroxytryptamine channel 3, antagonist radioligand; type: binding; conditions: Test Concentration 1.0E−05 M
Sequence of 5-HT3 (h) (P46098 24-478): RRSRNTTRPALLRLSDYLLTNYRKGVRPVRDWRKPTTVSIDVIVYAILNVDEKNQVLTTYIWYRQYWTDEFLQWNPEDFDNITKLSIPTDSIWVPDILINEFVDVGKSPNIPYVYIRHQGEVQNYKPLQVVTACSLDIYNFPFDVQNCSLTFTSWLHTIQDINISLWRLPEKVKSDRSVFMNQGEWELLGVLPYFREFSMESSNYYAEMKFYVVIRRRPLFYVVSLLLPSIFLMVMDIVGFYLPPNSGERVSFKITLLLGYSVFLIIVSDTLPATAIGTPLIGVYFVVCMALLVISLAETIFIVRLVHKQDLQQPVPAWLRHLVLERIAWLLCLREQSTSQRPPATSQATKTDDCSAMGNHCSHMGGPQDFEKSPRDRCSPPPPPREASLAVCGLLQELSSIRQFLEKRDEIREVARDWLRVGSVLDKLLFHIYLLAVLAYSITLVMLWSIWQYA

VPAC1 (VIP1) (h) = VPAC1 (VIP1) (h) (Homo sapiens (Human), UniProt P32241); assay: ExpresSProfile: vasoactive intestinal polypeptide receptor 1, agonist radioligand; type: binding; conditions: Test Concentration 1.0E−05 M
Sequence of VPAC1 (VIP1) (h) (P32241 31-457): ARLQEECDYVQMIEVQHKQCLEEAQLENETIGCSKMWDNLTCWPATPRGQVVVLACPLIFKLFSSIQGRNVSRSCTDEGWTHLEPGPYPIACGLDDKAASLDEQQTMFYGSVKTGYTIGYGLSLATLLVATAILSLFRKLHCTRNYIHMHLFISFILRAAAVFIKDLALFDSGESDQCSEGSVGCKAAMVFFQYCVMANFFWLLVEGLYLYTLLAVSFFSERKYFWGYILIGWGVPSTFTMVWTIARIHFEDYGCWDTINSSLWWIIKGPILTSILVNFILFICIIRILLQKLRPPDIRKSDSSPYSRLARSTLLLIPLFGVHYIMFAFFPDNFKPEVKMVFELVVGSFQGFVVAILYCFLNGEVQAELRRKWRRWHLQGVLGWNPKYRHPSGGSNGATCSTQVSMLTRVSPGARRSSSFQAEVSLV

V1a (h) = V1a (h) (Homo sapiens (Human), UniProt P37288); assay: ExpresSProfile: V1a, agonist radioligand; type: binding; conditions: Test Concentration 1.0E−05 M
Sequence of V1a (h) (P37288 whole entry): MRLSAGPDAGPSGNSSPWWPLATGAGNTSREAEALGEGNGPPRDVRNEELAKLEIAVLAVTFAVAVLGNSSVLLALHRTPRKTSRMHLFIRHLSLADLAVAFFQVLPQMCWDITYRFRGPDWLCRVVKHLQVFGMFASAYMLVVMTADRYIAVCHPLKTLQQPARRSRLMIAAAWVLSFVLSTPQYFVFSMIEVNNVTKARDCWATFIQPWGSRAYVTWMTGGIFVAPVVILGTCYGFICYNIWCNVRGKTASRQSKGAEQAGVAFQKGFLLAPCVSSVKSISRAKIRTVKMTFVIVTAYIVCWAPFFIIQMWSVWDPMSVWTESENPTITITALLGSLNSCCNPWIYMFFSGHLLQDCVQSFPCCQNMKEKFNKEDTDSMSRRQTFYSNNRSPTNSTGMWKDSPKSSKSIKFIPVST

[2] = system: Ca2+ channel (L, verapamil site) (phenylalkylamine); assay: ExpresSProfile: Ca2+ channel, antagonist radioligand; type: binding; conditions: Test Concentration 1.0E−05 M
KV channel = assay: ExpresSProfile: KV channel, antagonist radioligand; type: binding; conditions: Test Concentration 1.0E−05 M
SKCa channel = assay: ExpresSProfile: SKCa channel, antagonist radioligand; type: binding; conditions: Test Concentration 1.0E−05 M
[3] = read-out: % Inhibition of Control Specific Binding
[4] = read-out: % of Control Specific Binding 1st
[5] = read-out: % of Control Specific Binding 2nd
[6] = read-out: % of Control Specific Binding Mean

Structure (SMILES): COc1cccc(OC)c1-c1cc(C(=O)NC2(C(=O)O)C3CC4CC(C3)CC2C4)nn1-c1ccc(C(=O)N(C)CCCN(C)CCCN(C)C(=O)CN2CCN(CC(=O)O)CCN(CC(=O)O)CCN(CC(=O)O)CC2)cc1C(C)C (centres unmarked) [(IIIa), 2-{[1-{4-[(3-{[3-(DOTA-methyl-amino)-propyl]-methyl-amino}-propyl)-methyl-carbamoyl]-2-isopropyl-phenyl}-5-(2,6-dimethoxy-phenyl)-1H-pyrazole-3-carbonyl]-amino}-adamantane-2-carboxylic acid]
- fraction unbound at 4 h [1]: 0.11
- inhibition at 10 µM (beta 2 (h); [3]): -2%
- remaining activity at 10 µM (beta 2 (h); [4]): 107%
- remaining activity at 10 µM (beta 2 (h); [5]): 96.5%
- remaining activity at 10 µM (beta 2 (h); [6]): 102%
- inhibition at 10 µM (AT1 (h); [3]): -18%
- remaining activity at 10 µM (AT1 (h); [4]): 119%
- remaining activity at 10 µM (AT1 (h); [5]): 117%
- remaining activity at 10 µM (AT1 (h); [6]): 118%
- inhibition at 10 µM (CCK1 (CCKA) (h); [3]): -18%
- remaining activity at 10 µM (CCK1 (CCKA) (h); [4]): 102%
- remaining activity at 10 µM (CCK1 (CCKA) (h); [5]): 135%
- remaining activity at 10 µM (CCK1 (CCKA) (h); [6]): 118%
- inhibition at 10 µM (D2S (h); [3]): -9%
- remaining activity at 10 µM (D2S (h); [4]): 113%
- remaining activity at 10 µM (D2S (h); [5]): 105%
- remaining activity at 10 µM (D2S (h); [6]): 109%
- inhibition at 10 µM (CXCR2 (IL-8B) (h); [3]): -9%
- remaining activity at 10 µM (CXCR2 (IL-8B) (h); [4]): 119%
- remaining activity at 10 µM (CXCR2 (IL-8B) (h); [5]): 99.6%
- remaining activity at 10 µM (CXCR2 (IL-8B) (h); [6]): 109%
- inhibition at 10 µM (M2 (h); [3]): -17%
- remaining activity at 10 µM (M2 (h); [4]): 124%
- remaining activity at 10 µM (M2 (h); [5]): 111%
- remaining activity at 10 µM (M2 (h); [6]): 117%
- inhibition at 10 µM (NK3 (h); [3]): -1%
- remaining activity at 10 µM (NK3 (h); [4]): 102%
- remaining activity at 10 µM (NK3 (h); [5]): 98.5%
- remaining activity at 10 µM (NK3 (h); [6]): 100%
- inhibition at 10 µM (Y2 (h); [3]): -23%
- remaining activity at 10 µM (Y2 (h); [4]): 130%
- remaining activity at 10 µM (Y2 (h); [5]): 116%
- remaining activity at 10 µM (Y2 (h); [6]): 123%
- inhibition at 10 µM (NTS1 (NT1) (h); [3]): 99%
- remaining activity at 10 µM (NTS1 (NT1) (h); [4]): 2.7%
- remaining activity at 10 µM (NTS1 (NT1) (h); [5]): -0.1%
- remaining activity at 10 µM (NTS1 (NT1) (h); [6]): 1.3%
- inhibition at 10 µM (delta 2 (DOP) (h); [3]): -6%
- remaining activity at 10 µM (delta 2 (DOP) (h); [4]): 107%
- remaining activity at 10 µM (delta 2 (DOP) (h); [5]): 105%
- remaining activity at 10 µM (delta 2 (DOP) (h); [6]): 106%
- inhibition at 10 µM (EP4 (h); [3]): 8%
- remaining activity at 10 µM (EP4 (h); [4]): 89.2%
- remaining activity at 10 µM (EP4 (h); [5]): 95.5%
- remaining activity at 10 µM (EP4 (h); [6]): 92.3%
- inhibition at 10 µM (5-HT1B; [3]): -7%
- remaining activity at 10 µM (5-HT1B; [4]): 107%
- remaining activity at 10 µM (5-HT1B; [5]): 106%
- remaining activity at 10 µM (5-HT1B; [6]): 107%
- inhibition at 10 µM (5-HT2B (h); [3]): -22%
- remaining activity at 10 µM (5-HT2B (h); [4]): 118%
- remaining activity at 10 µM (5-HT2B (h); [5]): 125%
- remaining activity at 10 µM (5-HT2B (h); [6]): 122%
- inhibition at 10 µM (5-HT3 (h); [3]): -8%
- remaining activity at 10 µM (5-HT3 (h); [4]): 108%
- remaining activity at 10 µM (5-HT3 (h); [5]): 108%
- remaining activity at 10 µM (5-HT3 (h); [6]): 108%
- inhibition at 10 µM (VPAC1 (VIP1) (h); [3]): -6%
- remaining activity at 10 µM (VPAC1 (VIP1) (h); [4]): 104%
- remaining activity at 10 µM (VPAC1 (VIP1) (h); [5]): 107%
- remaining activity at 10 µM (VPAC1 (VIP1) (h); [6]): 106%
- inhibition at 10 µM (V1a (h); [3]): 6%
- remaining activity at 10 µM (V1a (h); [4]): 94.1%
- remaining activity at 10 µM (V1a (h); [5]): 93%
- remaining activity at 10 µM (V1a (h); [6]): 93.5%
- % Inhibition of Control Specific Binding [2]: 0%
- % of Control Specific Binding 1st [2]: 96.1%
- % of Control Specific Binding 2nd [2]: 103.7%
- % of Control Specific Binding Mean [2]: 99.9%
- % Inhibition of Control Specific Binding (KV channel): −4%
- % of Control Specific Binding 1st (KV channel): 104.3%
- % of Control Specific Binding 2nd (KV channel): 104.2%
- % of Control Specific Binding Mean (KV channel): 104.3%
- % Inhibition of Control Specific Binding (SKCa channel): 4%
- % of Control Specific Binding 1st (SKCa channel): 97.3%
- % of Control Specific Binding 2nd (SKCa channel): 95.2%
- % of Control Specific Binding Mean (SKCa channel): 96.2%

— patent US10799605B2 (3B PHARMACEUTICALS GMBH, priority 2014, dated 2020)
